Assay results reported in patent US12085575B2, “Compositions and methods for detecting proteinopathies” (BOARD OF SUPERVISORS OF LOUISIANA STATE UNIVERSITY AND …, priority 2011, dated 2024).

Columns and labels:
Type in all cases: cell-based, human
[1] = test system: autophagosomes and autophagolysosomes; assay: Cyt-ID and LysoTracker Red staining of autophagosomes, lysosomes and autophagolysosomes
Experimental: Autophagasome, lysosome and autophagolysosomes staining. Cells (100,000/point) were cultured on fibronectin-coated glass coverslips. Cells were treated with autophagy inhibitor Bafl (1 nM) (Sigma-Aldrich) for 18 hr. Cells were then exposed to UV radiation and allowed to recover in the presence of inhibitors for 3 h. Cells were then washed (2×1 min) with PBS and co-stained with Cyt-ID® (Cyt-ID® Autophagy Detection Kit from Enzo Lifesciences; Farmingdale, NY) and Lyso Tracker® Red DND-99 (Invitrogen) for 30 min at 37° C. in a CO2 incubator following manufacturer's protocol. Stained cells were then washed (2×1 min) with PBS and fixed with 4% paraformaldehyde for 20 min at room temperature. After washing with PBS (3×10 min), cells were mounted on slides in anti-fade mounting medium with DAPI (Invitrogen). Images were taken using a 63× oil immersion objective with a Leica DMRA2 upright microscope run through SlideBook software (Intelligent Imaging Innovations).
Autophagic flux was also monitored using Cyto-ID® and LysoTrack Red dyes. A-T and ATM+ cells were treated with Bafl (1 nM for 18 h) and then exposed to UV (25 mJ/m2) as indicated. Three hours after recovery in the presence of inhibitors, cells were co-stained with Cyt-ID® and LysoTracker Red® dyes. Fluorescence images of Cyt-ID® and LysoTracker Red® stained cells were made (Color images not shown). Green (autophagosomes; from Cyt-TD®-stained panels), red (lysosomes; from LysoTracker Red-stained panels), and yellow (autophagolysosomes; from merged panels) dots in A-T and ATM+ cells were counted manually using the ImageJ plug-in Cell Counter. Mean number of dots/cell is shown in FIGS. 11A and 11B, respectively. In FIGS. 11A and 11B, the number of autophagosomes (green dots) is represented by stippled bars; the number of lysosomes (red dots) is presented by lined bar; and the number of autophagolysosomes (yellow dots) is represented by clear (white) bars.
Bafilomycin inhibits autophagy at a late stage (47). Whether 3-methyl adenine (3-MA), an autophagy inhibitor known to inhibit autophagy at early stage by inhibiting formation of autophagosomes (56), could block UV-induced autophagic flux was tested in A-T/LV-control shRNA cells. Using Cyto-ID® and LysoTrack Red dyes as described herein in FIGS. 9A, 9B, 11A and 11B, the same criteria were used to judge autophagic activity in immunofluorescence analysis as described for FIGS. 11A and 11B.
The effect of 3-MA on UV-induced autophagic flux was tested in A-T/LV-ISG15 shRNA cells. A-T/LV-ISG15 shRNA cells were either left untreated or treated with 3-MA (10 nM for 18 h), and cells were then exposed to UV (25 mJ/m2). Three hours after recovery in the presence of the inhibitor, cells were co-stained with Cyt-ID® and LysoTracker Red® dyes. Fluorescence images of Cyt-ID® and LysoTracker Red® stained cells were made.

[2] = test system: HA-polyubiquitylated proteins; assay: UV-induced degradation of HA-polyubiquitylated proteins (anti-HA Western blot); settings: MG132 1 nm or 3-MA 10 nm for 18 h, UV 25 mJ/m2
Experimental: Immunoblotting Analysis of HA-ubiquitin conjugated proteins in cells exposed to UV radiation. Cells ([…]) were transfected with a hemagglutinin (HA)-ubiquitin plasmid using the PolyFect transfection reagent (Qiagen; Valencia, CA) as described (24). Twenty-four h after transfection, cells were treated with either proteasome inhibitor MG132 (1 μM) (Boston Biochemicals; Cambridge, MA) or autophagy inhibitor Bafilomycin A1 (Bafl) (1 nM) (Sigma-Aldrich) or 3-Methyladenine (3-MA) (100 nM) for 18 h. Cells were exposed to UV radiation (25 mJoules, using BioRad GS Gene Linker™ UV Chamber) and/or left untreated. Cells were then allowed to recover in the presence of inhibitors for 3 hr. Cell lysis, SDS-PAGE, and immunoblotting analysis to detect HA-ubiquitin conjugated proteins using anti-HA antibodies was carried out as described herein.
Decrease in the steady state levels of polyubiquitylated proteins could be due to their increased deubiquitylation or increased degradation via the 26S proteasome. Also, the ubiquitin antibody used in the experiment herein is known to cross-react with free ISG15/UCRP (44), and ISG15 protein is elevated in A-T cells (20). An HA-ubiquitin construct was transfected and then the steady state levels of the HA-polyubiquitylated proteins was assessed (to rule out the possibility of protein polyubiquitylation versus protein polyISGlyation), in the absence or presence of the proteasome inhibitor MG132 (to rule out the possibility of protein deubiquitylation versus protein degradation), in UV treated A-T and ATM+ cells. In FIG. 8B, A-T and ATM+ cells were transfected with a HA-ubiquitin construct. Cells were then treated with MG132 (1 μM) or Bafl (1 nM) for 18 hours and exposed to UV radiation (25 mJ/m2). After recovery in the presence of inhibitors for an additional three hours, cells were lysed. Cell extracts were analyzed by Western blotting for HA-polyubiquitylated proteins and actin using anti-HA and anti-actin antibodies respectively. Intensity of the total HA-polyubiquitylated proteins was quantitated using BioRad Quantity One software and results shown in FIG. 8C.
To complement the results shown in FIG. 8B, another construct was used that expresses HA-ubiquitin and that can preferentially make polyubiquitin chains linked through Lys48 on the substrates (20). In FIG. 8D, A-T and ATM+ cells were transfected with HA-Lys48 only ubiquitin construct. The inhibitor and UV treatments, cell lysis, SDS-PAGE, and immunoblotting analysis to detect HA-ubiquitin conjugated proteins using anti-HA antibodies was carried out as described herein. The experiment was repeated two times with the reproducible results. Similar results were obtained using this distinct HA-ubiquitin construct (FIG. 8D) as obtained herein (FIG. 8B); UV induced MG132- and Bafilomycin-resistant degradation of HA-Lys48-linked polyubiquitylated proteins in A-T cells, but not in ATM+ cells.
For FIG. 14A, HA-ubiquitin-transfected A-T/LV-control shRNA cells were exposed to UV (25 mJ/m2). After three hours of recovery, assessment of HA-polyubiquitylated proteins was carried out as described herein for FIG. 8B. In FIG. 14B, HA-ubiquitin-transfected A-T/LV-control shRNA cells were treated with Bafl (1 nm for 18 h). Cells were then exposed to UV (25 mJ/m2). After three hours of recovery in the presence of the inhibitor, assessment of HA-polyubiquitylated proteins was carried out as described for FIG. 14A. For FIG. 14C, HA-ubiquitin-transfected A-T/LV-control shRNA cells were treated with MG132 (1 nm for 18 h). Cells were then exposed to UV (25 mJ/m2). After three hours of recovery in the presence of the inhibitor, assessment of HA-polyubiquitylated proteins was carried out as described for FIG. 14A. For FIG. 14D, HA-ubiquitin-transfected A-T/LV-control shRNA cells were treated with 3-MA (10 nm for 18 h). Cells were then exposed to UV (25 mJ/m2). […]

Mfn2 = Mfn2 modification and degradation in A-T/LV shRNA cells treated with mitochondrial depolarizing agents; settings: ISG15 overexpressing A-T cells, 24 hr
Experimental: Immunoblotting Analysis of Mitochondrial Proteins—Mitochondria were isolated from A-T/LV control and ISG15 shRNA cells using the Miochondrial Isolation Kit (Thermo Scientific Company, 89874). The Dounce homogenization protocol described by the manufacturer was used to isolate mitochondria from cells. Mitochondrial pellets were resuspended in lysis buffer containing 50 mM Tris pH 7.5 and 4% (v/v) SDS. Samples were homogenized and boiled for 10 min. Lysates containing equal protein were then mixed with 6× Laemmli SDS sample buffer (3× final concentration). Samples were boiled again and mitochondrial proteins were analyzed by SDS-PAGE. Immunoblotting analyses using either anti-ISG15 (raised against human ISG15) (20), anti-ubiquitin (gift from Dr. Arthur Haas, at LSUHSC—New Orleans), or anti-mitofusin 2 (Abcam, ab88569) antibodies were carried out using the ECL Western procedure (Pierce, 34076) and the BioRad VersaDoc Imaging System (BioRad). Immunoblotting Analysis of HA Polyubiquitylated Proteins in Cells: Cells were transfected with HA-ubiquitin using the PolyFect transfection reagent (Qiagen, 301105). Twenty four hours after transfection, mitochondria were isolated as described above. Mitochondrial lysis, SDS-PAGE, and immunoblotting analysis to detect HA-ubiquitin conjugated proteins using anti-HA antibodies were carried out as described above. Immunoblotting Analysis of Mfn2 in Cells: Cells were lysed in lysis buffer containing 50 mM Tris-HCl, pH 7.5, 2% SDS, and protease inhibitor cocktail. Lysates were sonicated, boiled, and cleared by centrifugation. Lysates containing equal protein were then mixed with 6× Laemmli SDS sample buffer (3× final concentration). Samples were boiled again and proteins were separated by 15% SDS-PAGE. Immunoblotting analysis was carried out using anti-Mfn2 antibodies (Abcam) as described above. Intensity of the Mfn2 bands was quantitated using BioRad Quantity One software. Statistical analysis—Statistical analysis was carried out using GraphPad software.
Many outer mitochondrial membrane (OMM) proteins are ubiquitylated and degraded via the 26S proteasome prior to mitophagy in cells treated with the mitochondrial depolarizing agents (28,29). To test whether ISG15 inhibits polyubiquitylation of OMM proteins, we assessed the fate of Mfn2, an OMM protein and proteasome substrate, in A-T/LV-control and A-T/LV-ISG15-silenced cells treated with two different mitochondrial depolarizing agents, valinomycin and carbonylcyanide m-chlorophenylhydrazone (CCCP). Consistent with the literature reports (29,35,36), we observed a ladder of high molecular weight anti-Mfn2 cross-reactive bands above the 86 kDa Mfn2 protein band that is reminiscent of polyubiquitylation, in both ISG15-silenced and ISG15 overexpressing A-T cells (FIGS. 34 A and B, left panels). The endogenous level of these high molecular weight Mfn2 cross-reactive bands was remarkably higher in ISG15-silenced as compared to the ISG15-overexpressing A-T cells in the absence of any drugs (FIGS. 34A and B, first panels, compare lanes 1 and 4). […] In contrast, the level of these Mfn2 cross-reactive high molecular weight bands decreased under the same drug treatment conditions in ISG15-silenced A-T cells (FIGS. 34A and B, first panels, lanes 4-6, and the accompanying bar graph in the second panel for quantitation). […] The bar graphs in FIGS. 34A and B, third panels, show mean values of the ratio between free Mfn2 (86 kDa band) and actin proteins (±SEM) in CCCP-treated A-T/LV-control and ISG15 shRNA cells measured from eight independent experiments, and valinomycin-treated A-T/LV-control and ISG15 shRNA cells measured from three independent experiments respectively.

[3] = test system: polyubiquitylated proteins; assay: CHX chase of polyubiquitylated proteins in FT169A cells; settings: FT169A (ATM+) cells
Experimental: To test whether the defective ubiquitin-mediated degradation of cellular proteins contributes to neurodegeneration in A-T, the rate of degradation of overall cellular polyubiquitylated proteins was monitored in FT169A (A-T) (ATM null) and FT169A (ATM+) (ATM reconstituted FT169A) isogenic cells as described (71) using the protein synthesis inhibitor cycloheximide (CHX) (Sigma-Aldrich). In FIG. 1A, FT169A (A-T) (lanes 1-4) and FT169A (ATM+) (lanes 5-8) cells were treated with the protein synthesis inhibitor CHX (10 μg/ml) for 0, 1, 3, and 6 hours. Cell lysates were analyzed using discontinuous (15%) SDS-PAGE followed by immunoblotting with anti-ubiquitin antibody. The symbols * and ** mark the position of high-molecular-weight (HMW) polyubiquitylated proteins. Quantitation of the high-molecular-weight (HMW) polyubiquitylated proteins (shown as **) is shown in the bar graph.
The ubiquitin sequence contains seven lysine residues (at positions 6, 11, 27, 29, 33, 48, and 63) and polyubiquitin chain assembly can occur at any of these lysine residues (74). Lys48-linked polyubiquitylated proteins are targeted for destruction via the 26S proteasome (74). […] The amount of polyubiquitylated proteins and the rate of turnover of polyubiquitylated proteins (see the HMW protein species marked by *) were determined under the same conditions as in FIG. 1B using the anti-HA antibody in immunoblotting. […]

Cn1cnc(N)c2ncnc1-2 [3-MA, 3-Methyladenine] was tested. Which “yellow mean dots/cell (autophagolysosomes)” value ([1]; 3-MA-treated A-T/LV-control shRNA cells, untreated 3.8) did it give?
Its value is 0.5 dots/cell.

What about the “green mean dots/cell (autophagosomes)” value ([1]; 3-MA-treated A-T/LV-control shRNA cells, untreated 4.6) of the same compound?
Its value is 0.16 dots/cell.

And the autophagic activity ([1]; A-T/LV-ISG15 shRNA cells, 3-MA 10 nM 18 h, UV 25 mJ/m2)?
Its autophagic activity is “No apparent change”.

And the “green dots and yellow dots” value ([1]; A-T/LV-control shRNA cells co-treated with 3-MA and UV)?
Its value is “remained unaltered”.

And the “UV-induced degradation of HA-polyubiquitylated proteins” value ([2]; A-T/LV-ISG15 shRNA (ISG15-silenced) cells)?
The value was “induced degradation”.

What about the “UV-induced degradation of HA-polyubiquitylated proteins” value ([2]; A-T/LV-control shRNA cells) of the same compound?
Its value is “markedly blocked”.

For CC(C)[C@@H]1NC(=O)[C@H](C)OC(=O)[C@@H](C(C)C)NC(=O)[C@@H](C(C)C)OC(=O)[C@H](C(C)C)NC(=O)[C@H](C)OC(=O)[C@@H](C(C)C)NC(=O)[C@@H](C(C)C)OC(=O)[C@H](C(C)C)NC(=O)[C@H](C)OC(=O)[C@@H](C(C)C)NC(=O)[C@@H](C(C)C)OC1=O [valinomycin], which “free Mfn2 protein level” value (Mfn2) is on record?
Its value is “slightly increased”.

What does the source list for C[C@@H]1C[C@@H]([C@H](O)CC2CC(=O)NC(=O)C2)C(=O)[C@@H](C)C1 [CHX, cycloheximide]?
level of polyubiquitylated proteins reduced ([3]; CHX 10 μg/ml, within 6 hours): more than 30%; cellular pool of Lys48-linked polyubiquitylated proteins reduced ([3]; CHX, within 3 hours): more than 70%
